According to paper PMC9415015, “CK2 Inhibition and Antitumor Activity of 4,7-Dihydro-6-nitroazolo[1,5-a]pyrimidines” (Molecules, 2022):

Tests used:
[1] = Solubility noted during the cytotoxicity study; details: cytotoxicity study limited because of it
[2] = target: T1, human recombinant CK2α1 (Homo sapiens, UniProt P68400); assay: CK2 ADP-Glo kinase assay; format: biochemical; details: for Effect on CK2 activity in initial screening (in words): initial screening at 50 μM; for inhibition at 50 µM: 50 μM compound, n.a. = not active, read-out: CK2 Inhibition at 50 μM, m ± SD (%)
T1 construct: purchased Promega V4482
Method: Kinase activity was determined using the enzyme system CK2α1 (Promega V4482, Madison, WI, USA) and the ADP-Glo^TM kit (Promega V9101, Madison, WI, USA) in white 96-well plates (Nunc U96 Microwell 267350, Denmark). The reaction was carried out using 50 ng/well of N-GST labeled human recombinant CK2α1, 0.1 µg/µL bovine casein as a substrate, 10 μM ATP in 40 mM Tris buffer solution (pH 7.50) containing 20 mM MgCl2, 0.1 mg/mL of BSA, and 50 μM of DTT. Test compounds were added to 1.25% DMSO (final concentration 0.25%) and preincubated with kinase for 10 min. The reaction was carried out for 60 min at 25 °C in a thermostatically controlled PST-60HL shaker (Biosan. […], Latvia). ATP-dependent luminescence was measured at an integration time of 1000 ms using the Infinite M200 PRO microplate reader (Tecan. Austria). The ATP-competitive inhibitor Staurosporin (CAS 62996–74-1, Alfa Aesar J62837, 99+%) was used as a positive control. The experiments were performed in two parallels.

[3] = test system: Hos cells; assay: MTT test, osteosarcoma cells; format: cell-based, human; details: for Cytotoxicity index IC50 ± SE, Hos: MTT, 72 h incubation
Method: (§1) The studies were carried out on cultured cells of human glioblastoma (A-172, ATCC CRL 1620), human osteosarcoma (Hos, ATCC CRL 1543), human embryonic rhabdomyosarcoma (Rd, ATCC CRL 136), and human embryonic kidney 293 cells (Hek-293, ATCC CRL 1573) obtained from the Shared research facility “Vertebrate cell culture collection” (Institute of Cytology RAS, Saint-Petersburg, Russia). The cells were cultured using DMEM / F-12 medium containing 10% fetal bovine serum at 37°C, 5% CO2, and 98% humidity. Subculturing was performed using 0.25% trypsin solution when the culture reached ≥90% confluency.
(§2) The compounds were dissolved in DMSO. The solutions were diluted with DMEM/F-12 culture medium with 10% fetal bovine serum to the studied concentrations: 8, 16, 32, 64, 128, 256, 512, and 1024 µM. […] Cisplatin (cPt) was used as a positive control.
(§3) Cells were seeded in 96-well plates at a concentration of 4 × 10^3 cells per well. After 24 h, test compounds were added to the wells in a given concentration range. Then the cells were incubated for 72 h, after which a solution of MTT (3-(4,5-dimethyl-2-thiazolyl)-2,5-diphenyl-2H-tetrazolium bromide) was added to the cultures at 20 µL (5 mg/mL) to the well. After 2.5 h, the medium was removed from the wells and 200 µL of a mixture of DMSO/i-PrOH 1/1 was added. Optical density was measured on a plate spectrophotometer at a wavelength of 570 nm.
(§4) Statistical data processing was carried out in the RStudio program (Version 1.4.1106 © […] RStudio, PBC, Boston, MA, USA) using the R package (version 4.1.2). The cytotoxicity index (IC50) was calculated by plotting dose–response curves using the “drc” package.

[4] = test system: Rd cells; assay: MTT test, embryonic rhabdomyosarcoma cells; format: cell-based, human; details: for Cytotoxicity index IC50 ± SE, Rd: MTT, 72 h incubation
Method: as §1, §2, §3, §4

[5] = test system: A-172 cells; assay: MTT test, glioblastoma cells; format: cell-based, human; details: for Cytotoxicity index IC50 ± SE, A-172: MTT, 72 h incubation
Method: as §1, §2, §3, §4

[6] = test system: Hek-293 cells; assay: MTT test, human embryonic kidney cells; format: cell-based; details: 72 h incubation
Method: as §1, §2, §3, §4

[7] = test system: A-172, Rd, Hos and Hek-293 cells; assay: MTT test, all four cell lines together; format: cell-based; details: Homo sapiens, read-out: IC50 in all cases
Method: as §1, §2
(§5) Cells were seeded in 96-well plates at a concentration of 4 × 10^3 cells per well. After 24 h, test compounds were added to the wells in a given concentration range. […] Optical density was measured on a plate spectrophotometer at a wavelength of 570 nm.
as §4

[8] = test system: tumor cells A-172, Rd, and Hos; assay: MTT test, tumor cell lines together; format: cell-based; details: Homo sapiens, A 172, MTT, across A-172, Rd, 50 µM bound holds 'mostly'
Method: as §1, §2, §5, §4

T1 sequence (P68400 whole entry): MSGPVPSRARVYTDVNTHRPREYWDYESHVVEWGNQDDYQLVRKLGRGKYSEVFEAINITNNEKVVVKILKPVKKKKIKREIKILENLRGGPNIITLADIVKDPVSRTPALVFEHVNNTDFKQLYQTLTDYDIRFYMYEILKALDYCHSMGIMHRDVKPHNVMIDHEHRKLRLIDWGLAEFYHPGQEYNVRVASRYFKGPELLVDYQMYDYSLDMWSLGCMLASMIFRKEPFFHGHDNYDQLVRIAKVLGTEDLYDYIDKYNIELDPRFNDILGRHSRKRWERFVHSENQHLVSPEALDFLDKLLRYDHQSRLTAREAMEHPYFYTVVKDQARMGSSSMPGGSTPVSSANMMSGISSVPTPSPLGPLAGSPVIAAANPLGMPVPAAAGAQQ

Structure (SMILES) | Solubility (in words) [1] | Effect on CK2 activity in initial screening (in words) [2] | Cytotoxicity index IC50 ± SE, Hos [3] | Cytotoxicity index IC50 ± SE, Rd [4] | Cytotoxicity index IC50 ± SE, A-172 [5] | Cytotoxicity index IC50 ± SE, Hek-293 [6] | inhibition at 50 µM ([2]; 10 μM ATP) | melting point | IC50 [7] | Selectivity ratio SR (HOS) ([3]; normal/cancer cell (Hek-293 vs Hos)) | Selectivity ratio SR (RD) ([4]; normal/cancer cell (Hek-293 vs Rd)) | Selectivity ratio SR (A-172) ([5]; normal/cancer cell (Hek-293 vs A-172)) | IC50 [8] | CK2 inhibitory potency in dose-response study (in words) ([2]; dose-response study) | IC50 ([2]; dose-response study, 10 μM ATP, read-out: CK2 IC50)
O=[N+]([O-])C1=CNc2ccnn2C1c1ccccc1 (centres unmarked) [Compound 5a, 6-Nitro-7-phenyl-4,7-dihydropyrazolo[1,5-a]pyrimidine] | low solubility | paradoxically enhance CK2 activity |  |  |  |  |  |  |  |  |  |  |  |  | 
CC1=C([N+](=O)[O-])C(c2ccc([N+](=O)[O-])cc2)n2nccc2N1 (centres unmarked) [Compound 5c, 6-Nitro-5-methyl-7-(4ʹ-nitrophenyl)-4,7-dihydropyrazolo[1,5-a]pyrimidine] | low solubility | paradoxically enhance CK2 activity |  |  |  |  |  |  |  |  |  |  |  |  | 
CCC1=C([N+](=O)[O-])C(c2ccc(OC)cc2)n2ncc(C#N)c2N1 (centres unmarked) [Compound 5i, 3-Cyano-5-ehtyl-6-Nitro-7-(4ʹ-metoxyphenyl)-4,7-dihydropyrazolo[1,5-a]pyrimidine] |  |  | 88.44 ± 5.85 µM | 105.10 ± 10.70 µM | 145.19 ± 8.96 µM | 69.52 ± 8.69 µM | 3.66 ± 37.6% | 249 °C (dec.) |  |  |  |  |  |  | 
CCC1=C([N+](=O)[O-])C(c2ccc(O)c(OC)c2)n2ncc(C#N)c2N1 (centres unmarked) [Compound 5j, 3-Cyano-5-Ethyl-6-nitro-7-(3ʹ-methoxy-4ʹ-hydroxyphenyl)-4,7-dihydropyrazolo[1,5-a]pyrimidine] |  |  | 522.38 ± 16.16 µM | 673.44 ± 20.70 µM | 566.09 ± 17.12 µM | 581.39 ± 43.90 µM |  |  | > 400 µM |  |  |  |  |  | 
CCC1=C([N+](=O)[O-])C(c2ccc([N+](=O)[O-])cc2)n2nc(SC)c(C#N)c2N1 (centres unmarked) [Compound 5n, 5-Ehtyl-3-cyano-2-methylthio-6-nitro-7-(4ʹ-nitrophenyl)-4,7-dihydropyrazolo[1,5-a]pyrimidine] |  |  | 112.26 ± 8.19 µM | 151.44 ± 7.28 µM | 119.75 ± 8.49 µM | 78.70 ± 9.75 µM | 19.8 ± 24.5% |  |  |  |  |  |  |  | 
O=[N+]([O-])C1=CNc2ncnn2C1c1ccccc1 (centres unmarked) [Compound 6a, 6-Nitro-7-phenyl-4,7-dihydro-1,2,4-triazolo[1,5-a]pyrimidine] |  | paradoxically enhance CK2 activity | 542.85 ± 21.45 µM | 448.21 ± 22.53 µM | 434.08 ± 18.02 µM | 1131.79 ± 77.86 µM |  |  | > 400 µM |  |  |  |  |  | 
CC1=C([N+](=O)[O-])C(c2ccccc2)n2nc(C(F)(F)F)nc2N1 (centres unmarked) [Compound 6d, 5-Methyl-6-nitro-7-phenyl-2-trifluoromethyl-4,7-dihydro-1,2,4-triazolo[1,5-a]pyrimidine] |  | paradoxically enhance CK2 activity | 23.31 ± 1.84 µM | 37.28 ± 3.77 µM | 27.49 ± 1.67 µM | 50.07 ± 4.43 µM |  | 233 to 235 °C |  | 2.1 | 1.3 | 1.8 | ≤ 50 µM |  | 
CCC1=C([N+](=O)[O-])C(c2ccc([N+](=O)[O-])cc2)n2nc(C(F)(F)F)nc2N1 (centres unmarked) [Compound 6e] |  | Moderate inhibition | 93.72 ± 5.89 µM | 192.69 ± 10.27 µM | 82.44 ± 2.22 µM | 54.16 ± 5.32 µM | 39.8 ± 19.5% |  |  |  |  |  |  | low potency | > 100 µM
